From patent publication US20230159527A1, “COMPOUNDS AS BCL-2 INHIBITORS” (Fochon Pharmaceuticals, Ltd., priority 2020, published 2023)

Each molecule was assayed on Toledo cells (assay: Cell proliferation assay, Toledo cells (MTS, 72 h)). Conditions: Homo sapiens, Toledo cells, MTS, read-out: Toledo IC50.
Format: cell-based
Method: MTS testing kit was purchased from Promega (Madison, Wis., USA). The RPMI-1640, Fetal bovine serum and Penicillin-Streptomycin were purchased from BI (Biological Industries, Beit Haemek, Israel). Dimethyl sulfoxide (DMSO) was purchased from Sigma (St. Louis, Mo., USA). Toledo (ATCC catalog #: CRL-2631) cells were cultured in RPMI-1640 supplemented with Penicillin-Streptomycin and 10% FBS.
To investigate whether a compound is able to inhibit the activity of BCL-2 in cells, a mechanism-based assay using Toledo lines was developed. In this assay, the inhibition of BCL-2 was reflected by the inhibition of cell proliferation of Toledo cells. Cells were plated into 96-well plates at the optimized cell density of 30000 cells/well. Plates were incubated at 37° C., with 5% CO2 for 4h. Compounds were serially diluted and added to the plates with the final concentrations of 10000, 3333.3, 1111.1, 370.4, 123.5, 41.2, 13.7, 4.6 and 1.5 nM. Plates were incubated at 37° C., with 5% CO2 for 72 h. 20 μl MTS was added into each well and the plates were incubated at 37° C., with 5% CO2 for exactly 2 h. The absorbance was measured by a microplate reader at 490 nm. IC50 was calculated using GraphPad Prism 5.0 software.

| SMILES | IC50 [nM] |
| --- | --- |
| CC(C)c1ccccc1[C@@H]1CCC(=O)N1C1CC2(CCN(c3ccc(C(=O)NS(=O)(=O)c4cc5c(c([N+](=O)[O-])c4)N[C@@H]([C@H]4CC[C@](C)(O)CC4)CO5)c(Oc4cnc5[nH]cc(F)c5c4)c3)CC2)C1 [Example D-257, 2-((3-fluoro-1H-pyrrolo[2,3-b]pyridin-5-yl)oxy)-N-(((S)-3-((1r,4S)-4-hydroxy-4-methylcyclohexyl)-5-nitro-3,4-dihydro-2H-benzo[b] [1,4]oxazin-7-yl)sulfonyl)-4-(2-((S)-2-(2-isopropylphenyl)-5-oxopyrrolidin-1-yl)-7-azaspiro[3.5]nonan-7-yl)benzamide] | 1 |
| CC(C)c1ccccc1[C@@H]1CCCN1C1CC2(CCN(c3ccc(C(=O)NS(=O)(=O)c4cc5c(c([N+](=O)[O-])c4)N[C@@H]([C@H]4CC[C@](C)(O)CC4)CO5)c(Oc4cc5c(F)c[nH]c5nc4O[C@@H]4CCOC4)c3)CC2)C1 (single isomer, unassigned) [Example D-220, 2-((3-fluoro-6-(((R)-tetrahydrofuran-3-yl)oxy)-1H-pyrrolo[2,3-b]pyridin-5-yl)oxy)-N-((S)-3-((1r,4S)-4-hydroxy-4-methylcyclohexyl)-5-nitro-3,4-dihydro-2H-benzo [b][1,4]oxazin-7-yl)sulfonyl)-4-(2-((R or S)-2-(2-isopropylphenyl)pyrrolidin-1-yl)-7-azaspiro[3.5]nonan-7-yl)benzamide] | 1 |
| CC(C)c1ccccc1[C@@H]1CCC[C@@H]1N1CC2(CCN(c3ccc(C(=O)NS(=O)(=O)c4ccc(NC[C@H]5CC[C@](C)(O)CC5)c([N+](=O)[O-])c4)c(Oc4cc5cc[nH]c5nc4OC4COC4)c3)CC2)C1 (single isomer, unassigned) [Example D-115, N-((4-((((1r,4r)-4-hydroxy-4-methylcyclohexyl)methyl)amino)-3-nitrophenyl)sulfonyl)-4-(2-((1S,2S or 1R,2R)-2-(2-isopropylphenyl)cyclopentyl)-2,7-diazaspiro[3.5]nonan-7-yl)-2-((6-(oxetan-3-yloxy)-1H-pyrrolo[2,3-b]pyridin-5-yl)oxy) benzamide] | 1 |
| CC(C)c1ccccc1[C@H]1CCCN1C1CC2(CCN(c3ccc(C(=O)NS(=O)(=O)c4cc5c(c([N+](=O)[O-])c4)NC([C@H]4COCCO4)CO5)c(Oc4cnc5[nH]cc(F)c5c4)c3)CC2)C1 (single isomer, unassigned) [Example D-50a, N-(((R or S)-3-((S)-1,4-dioxan-2-yl)-5-nitro-3,4-dihydro-2H-benzo[b][1,4]oxazin-7-yl)sulfonyl)-2-((3-fluoro-1H-pyrrolo[2,3-b]pyridin-5-yl)oxy)-4-(2-((R or S)-2-(2-isopropylphenyl)pyrrolidin-1-yl)-7-azaspiro[3.5]nonan-7-yl)benzamide] | 1 |
| CC(C)c1ccccc1[C@@H]1CC[C@H](CO)N1C1CC2(CCN(c3ccc(C(=O)NS(=O)(=O)c4cc5c(c([N+](=O)[O-])c4)N[C@@H]([C@H]4CC[C@](C)(O)CC4)CO5)c(Oc4cnc5[nH]cc(F)c5c4)c3)CC2)C1 [Example D-254, 2-((3-fluoro-1H-pyrrolo[2,3-b]pyridin-5-yl)oxy)-N-(((S)-3-((1r,4S)-4-hydroxy-4-methylcyclohexyl)-5-nitro-3,4-dihydro-2H-benzo[b] [1,4]oxazin-7-yl)sulfonyl)-4-(2-((2R,5S)-2-(hydroxymethyl)-5-(2-isopropylphenyl)pyrrolidin-1-yl)-7-azaspiro[3.5]nonan-7-yl)benzamide] | 1 |
| CC(C)c1ccccc1[C@@H]1CSCCN1C1CC2(CCN(c3ccc(C(=O)NS(=O)(=O)c4cc5c(c([N+](=O)[O-])c4)N[C@@H]([C@H]4CC[C@](C)(O)CC4)CO5)c(Oc4cnc5[nH]cc(F)c5c4)c3)CC2)C1 (single isomer, unassigned) [Example D-78, 2-((3-fluoro-1H-pyrrolo[2,3-b]pyridin-5-yl)oxy)-N-(((S)-3-((1r,4S)-4-hydroxy-4-methylcyclohexyl)-5-nitro-3,4-dihydro-2H-benzo[b] [1,4]oxazin-7-yl)sulfonyl)-4-(2-((R or S)-3-(2-isopropylphenyl)thiomorpholino)-7-azaspiro[3.5]nonan-7-yl)benzamide] | 1 |
| CC(C)c1ccccc1[C@@H]1CN(S(=O)(=O)C2CC2)CCN1C1CC2(CCN(c3ccc(C(=O)NS(=O)(=O)c4cc5c(c([N+](=O)[O-])c4)N[C@@H]([C@H]4CC[C@](C)(O)CC4)CO5)c(Oc4cnc5[nH]cc(F)c5c4)c3)CC2)C1 (single isomer, unassigned) [Example D-81, 4-(2-((R or S)-4-(cyclopropylsulfonyl)-2-(2-isopropylphenyl)piperazin-1-yl)-7-azaspiro[3.5]nonan-7-yl)-2-((3-fluoro-1H-pyrrolo[2,3-b]pyridin-5-yl)oxy)-N-(((S)-3-((1r,4S)-4-hydroxy-4-methylcyclohexyl)-5-nitro-3,4-dihydro-2H-benzo[b][1,4]oxazin-7-yl)sulfonyl)benzamide] | 1 |
| CO[C@H]1CC[C@H]([C@@H]2COc3cc(S(=O)(=O)NC(=O)c4ccc(N5CCC6(CC5)CC(N5CCC[C@H]5c5ccccc5C(C)C)C6)cc4Oc4cnc5[nH]cc(F)c5c4)cc([N+](=O)[O-])c3N2)CC1 (single isomer, unassigned) [Example D-45, 2-((3-fluoro-1H-pyrrolo[2,3-b]pyridin-5-yl)oxy)-4-(2-((R or S)-2-(2-isopropylphenyl)pyrrolidin-1-yl)-7-azaspiro[3.5]nonan-7-yl)-N-(((R)-3-((1r,4S)-4-methoxycyclohexyl)-5-nitro-3,4-dihydro-2H-benzo[b][1,4]oxazin-7-yl)sulfonyl)benzamide] | 1 |
| CC(C)c1ccccc1[C@H]1CCCN1C1CC2(CCN(c3ccc(C(=O)NS(=O)(=O)c4cc5c(c([N+](=O)[O-])c4)NC([C@@H]4COCCO4)CO5)c(Oc4cnc5[nH]cc(F)c5c4)c3)CC2)C1 (single isomer, unassigned) [Example D-49a, N-(((R or S)-3-((R)-1,4-dioxan-2-yl)-5-nitro-3,4-dihydro-2H-benzo[b][1,4]oxazin-7-yl)sulfonyl)-2-((3-fluoro-1H-pyrrolo[2,3-b]pyridin-5-yl)oxy)-4-(2-((R or S)-2-(2-isopropylphenyl)pyrrolidin-1-yl)-7-azaspiro[3.5]nonan-7-yl)benzamide] | 1 |
| CC(C)c1ccccc1[C@@H]1CCCN1C1CC2(CCN(c3ccc(C(=O)NS(=O)(=O)c4cc5c(c([N+](=O)[O-])c4)N[C@H]([C@H]4CC[C@@H](O)CC4)CO5)c(Oc4cnc5[nH]cc(F)c5c4)c3)CC2)C1 (single isomer, unassigned) [Example D-43, 2-((3-fluoro-1H-pyrrolo[2,3-b]pyridin-5-yl)oxy)-N-(R)-3-((1s,4S)-4-hydroxycyclohexyl)-5-nitro-3,4-dihydro-2H-benzo[b][1,4]oxazin-7-yl)sulfonyl)-4-(2-((R or S)-2-(2-isopropylphenyl)pyrrolidin-1-yl)-7-azaspiro[3.5]nonan-7-yl)benzamide] | 1 |
| CC(C)c1ccccc1[C@@H]1CS(=O)(=O)CCN1C1CC2(CCN(c3ccc(C(=O)NS(=O)(=O)c4cc5c(c([N+](=O)[O-])c4)N[C@@H]([C@H]4CC[C@](C)(O)CC4)CO5)c(Oc4cnc5[nH]cc(F)c5c4)c3)CC2)C1 (single isomer, unassigned) [Example D-79, 2-((3-fluoro-1H-pyrrolo[2,3-b]pyridin-5-yl)oxy)-N-(((S)-3-((1r,4S)-4-hydroxy-4-methylcyclohexyl)-5-nitro-3,4-dihydro-2H-benzo[b] [1,4]oxazin-7-yl)sulfonyl)-4-(2-((R or S)-3-(2-isopropylphenyl)-1,1-dioxidothiomorpholino)-7-azaspiro [3.5]nonan-7-yl)benzamide] | 1 |

Same assay, conditions: Homo sapiens, Toledo, read-out: Toledo IC50 (nM)

| SMILES | IC50 [nM] |
| --- | --- |
| CC(C)c1ccccc1[C@@H]1COCCN1C1CC2(CCN(c3ccc(C(=O)NS(=O)(=O)c4cc5c(c([N+](=O)[O-])c4)N[C@@H]([C@H]4CC[C@](C)(O)CC4)CO5)c(Oc4cnc5[nH]cc(Cl)c5c4)c3)CC2)C1 (single isomer, unassigned) [Example D-2, 2-((3-chloro-1H-pyrrolo[2,3-b]pyridin-5-yl)oxy)-N-(((S)-3-((1r,4S)-4-hydroxy-4-methylcyclohexyl)-5-nitro-3,4-dihydro-2H-benzo[b] [1,4]oxazin-7-yl)sulfonyl)-4-(2-((R or S)-3-(2-isopropylphenyl)morpholino)-7-azaspiro[3.5]nonan-7-yl) benzamide] | 1 |

Same assay, conditions: Toledo cells, MTS, read-out: Toledo IC50

| SMILES | IC50 [nM] |
| --- | --- |
| CC(C)c1ccccc1[C@@H]1CCC[C@@H]1N1CC2(CCN(c3ccc(C(=O)NS(=O)(=O)c4cc5c(c([N+](=O)[O-])c4)N[C@@H]([C@H]4CC[C@](C)(O)CC4)CO5)c(Oc4cnc5[nH]cc(F)c5c4)c3)CC2)C1 (single isomer, unassigned) [Example D-28b, 2-((3-fluoro-1H-pyrrolo[2,3-b]pyridin-5-yl)oxy)-N-(((S)-3-((1r,4S)-4-hydroxy-4-methylcyclohexyl)-5-nitro-3,4-dihydro-2H-benzo[b] [1,4]oxazin-7-yl)sulfonyl)-4-(2-((1S,2S or 1R,2R)-2-(2-isopropylphenyl)cyclopentyl)-2,7-diazaspiro[3.5]nonan-7-yl)benzamide] | 1 |
